# Laboratory results reported in US9085555B2, “Complement pathway modulators and uses thereof” (priority 2011, dated 2015).
# Target: Factor D (Homo sapiens (Human), UniProt P00746)
# Assay: biochemical
# Assay type: biochemical
# Conditions: read-out: IC50
# Factor D, sequence (P00746 26-253): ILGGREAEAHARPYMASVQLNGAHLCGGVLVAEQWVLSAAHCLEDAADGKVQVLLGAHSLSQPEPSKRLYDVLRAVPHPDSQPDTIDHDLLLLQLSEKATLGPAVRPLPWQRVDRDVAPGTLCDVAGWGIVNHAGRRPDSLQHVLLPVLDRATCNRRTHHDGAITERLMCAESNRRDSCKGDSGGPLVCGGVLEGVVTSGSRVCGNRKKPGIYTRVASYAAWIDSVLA
row,Compound,IC50 [nM]
1,"CC(=O)c1nn(CC(=O)N2[C@@H]3C[C@@H]3C[C@H]2C(=O)Nc2cccc(C(F)(F)F)n2)c2cnccc12 [Example 733, (1R,3S,5R)-2-[2-(3-Acetyl-pyrazolo[3,4-c]pyridin-1-yl)-acetyl]-2-aza-bicyclo[3.1.0] hexane-3-carboxylic acid (6-trifluoromethyl-pyridin-2-yl)-amide]",25
2,"Cc1cc2c(C(N)=O)nn(CC(=O)N3[C@@H]4C[C@@H]4C[C@H]3C(=O)Nc3cccc(Br)n3)c2cn1 [Example 734, 1-{2-[(1R,3S,5R)-3-(6-Bromo-pyridin-2-ylcarbamoyl)-2-aza-bicyclo[3.1.0]hex-2-yl]-2-oxo-ethyl}-5-methyl-1H-pyrazolo [3,4-c]pyridine-3-carboxylic acid amide]",4
3,"CCc1cc2c(C(N)=O)nn(CC(=O)N3[C@@H]4C[C@@H]4C[C@H]3C(=O)Nc3cccc(Br)n3)c2cn1 [Example 735, 1-{2-[(1R,3S,5R)-3-(6-Bromo-pyridin-2-ylcarbamoyl)-2-aza-bicyclo[3.1.0]hex-2-yl]-2-oxo-ethyl}-5-ethyl-1H-pyrazolo[3,4-c]pyridine-3-carboxylic acid amide]",3
4,"CC(=O)c1nn(CC(=O)N2[C@@H]3C[C@@H]3C[C@H]2C(=O)Nc2cccc(Br)n2)c2cnccc12 [Example 736, (1R,3S,5R)-2-[2-(3-Acetyl-pyrazolo[3,4-c]pyridin-1-yl)-acetyl]-2-aza-bicyclo[3.1.0] hexane-3-carboxylic acid (6-bromo-pyridin-2-yl)-amide]",18
5,"C[C@@]12C[C@@H](C(=O)Nc3cccc(OC(F)(F)F)c3F)N(C(=O)Cn3nc(C(N)=O)c4ccncc43)[C@@H]1C2 [Example 738, 1-{2-[(1R,3S,5R)-3-(2-Fluoro-3-trifluoromethoxy-phenylcarbamoyl)-5-methyl-2-aza-bicyclo[3.1.0]hex-2-yl]-2-oxo-ethyl}-1H-pyrazolo[3,4-c] pyridine-3-carboxylic acid amide]",93
6,"NC(=O)c1nn(CC(=O)N2C[C@H](F)C[C@H]2C(=O)Nc2cccc(Br)n2)c2ccccc12 [Example 739, 1-{2-[(2S,4R)-2-(6-Bromo-pyridin-2-ylcarbamoyl)-4-fluoro-pyrrolidin-1-yl]-2-oxo-ethyl}-1H-indazole-3-carboxylic acid amide]",23
7,"CC(=O)c1nn(CC(=O)N2[C@@H]3C[C@@H]3C[C@H]2C(=O)Nc2cccc(Br)n2)c2ccncc12 [Example 740, (1R,3S,5R)-2-[2-(3-Acetyl-pyrazolo[4,3-c]pyridin-1-yl)-acetyl]-2-aza-bicyclo[3.1.0] hexane-3-carboxylic acid (6-bromo-pyridin-2-yl)-amide]",13
8,"NC(=O)c1nn(CC(=O)N2[C@@H]3C[C@@H]3C[C@H]2C(=O)Nc2nc(Br)cs2)c2ccccc12 [Example 742, 1-{2-[(1R,3S,5R)-3-(4-Bromo-thiazol-2-ylcarbamoyl)-2-aza-bicyclo[3.1.0]hex-2-yl]-2-oxo-ethyl}-1H-indazole-3-carboxylic acid amide]",37
9,"Cc1cc2c(C(N)=O)nn(CC(=O)N3[C@@H]4C[C@@H]4C[C@H]3C(=O)Nc3cccc(Br)n3)c2c(C)n1 [Example 743, 1-{2-[(1R,3S,5R)-3-(6-Bromo-pyridin-2-ylcarbamoyl)-2-aza-bicyclo[3.1.0]hex-2-yl]-2-oxo-ethyl}-5,7-dimethyl-1H-pyrazolo[3,4-c]pyridine-3-carboxylic acid amide]",5
10,"C[C@@]12C[C@@H](C(=O)Nc3cccc(Br)n3)N(C(=O)Cn3nc(C(N)=O)c4ccccc43)[C@@H]1C2 [Example 744, 1-{2-[(1R,3S,5R)-3-(6-Bromo-pyridin-2-ylcarbamoyl)-5-methyl-2-aza-bicyclo[3.1.0]hex-2-yl]-2-oxo-ethyl}-1H-indazole-3-carboxylic acid amide]",4
